Assay results as given in patent publication US20130040933A1, “AZAINDOLES AS JANUS KINASE INHIBITORS” (priority 2010, published 2013).
pIC50: −log10 of the molar value.

biological target: T1, rhJAK3 (Homo sapiens, UniProt P52333); assay: JAK Biochemical HTRF Assay (JAK3); details: recombinant purified GST-tagged catalytic domain, HTRF format, [ATP] 1.7 μM; read-out: rhJAK3 IC50
T1 construct: recombinant purified GST-tagged catalytic domain for each enzyme; purchased Invitrogen PV3855
Description: JAK Biochemical HTRF Assay Protocol
The ability of compounds to inhibit the activity of JAK1, JAK2, JAK3, and TYK2 was measured using a recombinant purified GST-tagged catalytic domain for each enzyme (Invitrogen JAK1 #PV4774, JAK2 #PV4210, JAK3 #PV3855, TYK2 #PV4790) in an HTRF format biochemical assay. The reactions employed a common peptide substrate, LCB-EQEDEPEGDYFEWLW-NH2. The basic assay protocol is as follows: First, […] of diluted compounds in DMSO were dispensed into the wells of a dry 384-well Black plate (Greiner #781076) using a Labcyte Echo 555 acoustic dispenser. Subsequent reagent additions employed a Thermo Multidrop Combi nL. Next, 10 μL of 2× enzyme and 2× substrate in 1× assay buffer (Invitrogen kinase buffer #PV3189, 2 mM DTT, 0.05% BSA) were added to the wells and preincubated for 30 min at room temperature to allow compound binding to equilibrate. After equilibration, 10 μl, of 2×ATP in 1× assay buffer was added to initiate the kinase reaction and the plates were incubated at room temperature for 120 min. At the end of the incubation, 20 μL of 2× stop buffer containing streptavidin-Dylight (Thermo #21845) and Eu-tagged pY20 antibody (Perkin Elmer #AD0067) was added to quench the reaction. Plates were further incubated 60 min at room temperature with shaking and then read on a Perkin Elmer Envision (λex=337 nm, λem=665 and 615 nm, TRF delay time=20 μs). HTRF signal=10,000*665 nm reading/615 nm reading. After normalization to untreated controls, the percent inhibition of the HTRF signal at each compound concentration was calculated. The plot of percent inhibition vs. the log of compound concentration was fit with a 4-parameter dose response equation to calculate IC50 values.

T1 sequence (P52333 822-1111 limits assumed): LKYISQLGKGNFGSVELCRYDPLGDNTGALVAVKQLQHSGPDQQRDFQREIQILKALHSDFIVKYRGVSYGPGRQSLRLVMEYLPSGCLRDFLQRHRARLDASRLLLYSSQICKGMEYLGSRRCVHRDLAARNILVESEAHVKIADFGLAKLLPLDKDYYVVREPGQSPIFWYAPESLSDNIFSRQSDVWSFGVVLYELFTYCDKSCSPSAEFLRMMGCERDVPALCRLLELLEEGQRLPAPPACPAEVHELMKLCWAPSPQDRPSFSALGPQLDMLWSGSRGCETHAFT

`Cc1cc(CNC(=O)[C@@H](C)Nc2cncc(-c3c[nH]c4ncc(Cl)cc34)n2)no1` [Example 2-6, N^2-[6-(5-chloro-1H-pyrrolo[2,3-b]-pyridin-3-yl)pyrazin-2-yl]-N-[(5 - methylisoxazol-3-yl)methyl]-D-alaninamide] and `C[C@@H](Nc1cncc(-c2c[nH]c3ncc(Cl)cc23)n1)C(=O)NCc1cccs1` [Example 2-10, N^2-[6-(5-chloro-1H-pyrrolo[2,3-b]-pyridin-3-yl)pyrazin-2-yl]-N-(thiophen-2-ylmethyl)-D-alaninamide] fall in the same range of pIC50: 6.00 to 7.00 for the first, 6.00 to 7.00 for the second.

`C[C@@H](Nc1cncc(-c2c[nH]c3ncc(Cl)cc23)n1)C(=O)NCCc1cn[nH]c1` [Example 2-7, N^2-[6-(5-chloro-1H-pyrrolo[2,3-b]-pyridin-3-yl)pyrazin-2-yl]-N-[2-(1H-pyrazol-4-yl)ethyl]-D-alaninamide] and `C[C@@H](Nc1cncc(-c2c[nH]c3ncc(Cl)cc23)n1)C(=O)NCCc1cccs1` [Example 2-15, N^2-[6-(5-chloro-1H-pyrrolo[2,3-b]-pyridin-3-yl)pyrazin-2-yl]-N-(2-thiophen-2-ylethyl)-D-alaninamide] fall in the same range of pIC50: 6.00 to 7.00 for the first, 6.00 to 7.00 for the second.

`C[C@@H](Nc1cncc(-c2c[nH]c3ncc(Cl)cc23)n1)C(=O)NCCC1CC1` [Example 2-8, N^2-[6-(5-chloro-1H-pyrrolo[2,3-b]-pyridin-3-yl)pyrazin-2-yl]-N-(2-cyclopropylethyl)-D-alaninamide] and `C[C@H](Nc1cncc(-c2c[nH]c3ncc(Cl)cc23)n1)C(=O)NCCC(F)(F)F` [Example 2-22, N^2-[6-(5-chloro-1H-pyrrolo[2,3-b]-pyridin-3-yl)pyrazin-2-yl]-N-(3,3,3-trifluoropropyl)-L-alaninamide] fall in the same range of pIC50: 7.00 to 8.00 for the first, 7.00 to 8.00 for the second.

First: CC(Cc1cccnc1)NC(=O)[C@@H](C)Nc1cncc(-c2c[nH]c3ncc(Cl)cc23)n1 (stereo partly drawn) [Example 2-9, N^2-[6-(5-chloro-1H-pyrrolo[2,3-b]-pyridin-3-yl)pyrazin-2-yl]-N-(l - methyl-2-pyridin-3-ylethyl)-D-alaninamide]
Second: CC(C)CNC(=O)[C@H](C)Nc1cncc(-c2c[nH]c3ncc(Cl)cc23)n1 [Example 2-23, N^2-[6-(5-chloro-1H-pyrrolo[2,3-b]-pyridin-3-yl)pyrazin-2-yl]-N-(2-methylpropyl)-L-alaninamide]
The pIC50 of the first is lower: 6.00 to 7.00 for the first, 7.00 to 8.00 for the second.

`C[C@@H](Nc1cncc(-c2c[nH]c3ncc(Cl)cc23)n1)C(=O)NCC(=O)N(C)C` [Example 2-11, N-[6-(5-chloro-1H-pyrrolo[2,3-b]-pyridin-3-yl)pyrazin-2-yl]-D-alanyl-N,N-dimethylglycinamide] and `C[C@H](Nc1cncc(-c2c[nH]c3ncc(Cl)cc23)n1)C(=O)NCC(C)(C)C` [Example 2-24, N^2-[6-(5-chloro-1H-pyrrolo[2,3-b]-pyridin-3-yl)pyrazin-2-yl]-N-(2,2-dimethylpropyl)-L-alaninamide] fall in the same range of pIC50: 6.00 to 7.00 for the first, 6.00 to 7.00 for the second.

`C[C@@H](Nc1cncc(-c2c[nH]c3ncc(Cl)cc23)n1)C(=O)N1CCC(F)(F)CC1` [Example 2-12, 6-(5-chloro-1H-pyrrolo[2,3-b]-pyridin-3-yl)-N-[(1R)-2-(4,4-difluoropiperidin-1-yl)-1-methyl-2-oxoethyl]pyrazin-2-amine] and `C[C@@H](Nc1cncc(-c2c[nH]c3ncc(Cl)cc23)n1)C(=O)N1CCN(CC(F)(F)F)CC1` [Example 2-19, 6-(5-chloro-1H-pyrrolo[2,3-b]-pyridin-3-yl)-N-{(1R)-1-methyl-2-oxo-2-[4-(2,2,2-trifluoroethyl)-piperazin-1-yl]ethyl}pyrazin-2-amine] fall in the same range of pIC50: 6.00 to 7.00 for the first, 6.00 to 7.00 for the second.

First: C[C@@H](Nc1cncc(-c2c[nH]c3ncc(Cl)cc23)n1)C(=O)NC1CCCCNC1=O (stereo partly drawn) [Example 2-13, N^2-[6-(5-chloro-1H-pyrrolo[2,3-b]-pyridin-3-yl)pyrazin-2-yl]-N-(2-oxoazepan-3-yl)-D-alaninamide]
Second: C[C@@H](Nc1cncc(-c2c[nH]c3ncc(Cl)cc23)n1)C(=O)NC1CCC1 [Example 2-17, N^2-[6-(5-chloro-1H-pyrrolo[2,3-b]-pyridin-3-yl)pyrazin-2-yl]-N-cyclo-butyl-D-alaninamide]
The pIC50 of the first is lower: 6.00 to 7.00 for the first, 7.00 to 8.00 for the second. The second is the more potent here.

`C[C@@H](Nc1cncc(-c2c[nH]c3ncc(Cl)cc23)n1)C(=O)NCc1ccc(N)cc1` [Example 2-14, N-(4-aminobenzyl)-N^2-[6-(5-chloro-1H-pyrrolo[2,3-b]pyridin-3-yl)pyrazin-2-yl]-D-alaninamide] and `C[C@@H](Nc1cncc(-c2c[nH]c3ncc(Cl)cc23)n1)C(=O)NCc1ccc(C(F)(F)F)cc1` [Example 2-21, N^2-[6-(5-chloro-1H-pyrrolo[2,3-b]-pyridin-3-yl)pyrazin-2-yl]-N-[4-(trifluoromethyl)benzyl]-D-alaninamide] fall in the same range of pIC50: 6.00 to 7.00 for the first, 6.00 to 7.00 for the second.

`C[C@@H](Nc1cncc(-c2c[nH]c3ncc(Cl)cc23)n1)C(=O)NCC(=O)NC1CCCC1` [Example 2-16, N-[6-(5-chloro-1H-pyrrolo[2,3-b]-pyridin-3-yl)pyrazin-2-yl]-D-alanyl-N-cyclopentylglycinamide] and `C[C@@H](Nc1cncc(-c2c[nH]c3ncc(Cl)cc23)n1)C(=O)NCCCN1CCS(=O)(=O)CC1` [Example 2-20, N^2-[6-(5-chloro-1H-pyrrolo[2,3-b]-pyridin-3-yl)pyrazin-2-yl]-N-[3-(1,1-dioxidothiomorpholin-4-yl)-propyl]-D-alaninamide] fall in the same range of pIC50: 6.00 to 7.00 for the first, 6.00 to 7.00 for the second.

`C[C@@H](Nc1cncc(-c2c[nH]c3ncc(Cl)cc23)n1)C(=O)N[C@H](CO)Cc1ccc(O)cc1` [Example 2-18, N^2-[6-(5-chloro-1H-pyrrolo[2,3-b]-pyridin-3-yl)pyrazin-2-yl]-N-[(1S)-2-hydroxy-1-(4-hydroxybenzyl)-ethyl]-D-alaninamide] and `O=C(NCCC(F)(F)F)C1(Nc2cncc(-c3c[nH]c4ncc(Cl)cc34)n2)CCCC1` [Example 2-26, 1-{[6-(5-chloro-1H-pyrrolo[2,3-b]pyridin-3-yl)pyrazin-2-yl]amino}-N-(3,3,3-trifluoropropyl)cyclopentanecarboxamide] fall in the same range of pIC50: 6.00 to 7.00 for the first, 6.00 to 7.00 for the second.

`O=C(NCC(F)(F)F)C1(Nc2cncc(-c3c[nH]c4ncc(Cl)cc34)n2)CCCC1` [Example 2-25, 1-{[6-(5-chloro-1H-pyrrolo[2,3-b]pyridin-3-yl)pyrazin-2-yl]amino}-N-(2,2,2-trifluoroethyl)cyclopentanecarboxamide] and `O=C(NCC(F)(F)F)C1(Oc2cncc(-c3c[nH]c4ncc(Cl)cc34)n2)CC1` [Example 6, 1-{[6-(5-Chloro-1H-pyrrolo[2,3-b]pyridin-3-yl)pyrazin-2-yl]oxy}-N-(2,2,2-trifluoroethyl)-cyclopropanecarboxamide] cannot be ordered by pIC50: ≥ 9.00 for the first, 8.00 to 9.00 for the second.

`O=C(NCC(F)(F)F)[C@@H]1[C@@H](O)CN1c1cncc(-c2c[nH]c3ncc(Cl)cc23)n1` [Example 3, (2S,3S)-1-[6-(5-Chloro-1H-pyrrolo[2,3-b]pyridin-3-yl)pyrazin-2-yl]-3-hydroxy-N-(2,2,2-trifluoroethyl)azetidine-2-carboxamide] and `CC(=O)N1CCN(c2cncc(-c3c[nH]c4ncc(Cl)cc34)n2)[C@@H](C(=O)NCC(F)(F)F)C1` [Example 4-2, (2R)-4-acetyl-1-[6-(5-chloro-1H-pyrrolo-[2,3-b]pyridin-3-yl)pyrazin-2-yl]-N-(2,2,2-trifluoroethyl)piperazine-2-carboxamide] fall in the same range of pIC50: 8.00 to 9.00 for the first, 8.00 to 9.00 for the second.

Compared with `CS(=O)(=O)N1CCN(c2cncc(-c3c[nH]c4ncc(Cl)cc34)n2)[C@@H](C(=O)NCC(F)(F)F)C1` [Example 4, (2R)-1-[6-(5-Chloro-1H-pyrrolo[2,3-b]pyridin-3-yl)pyrazin-2-yl]-4-methylsulfonyl-N-(2,2,2-trifluoroethyl)piperazine-2-carboxamide], `CC(C)(C)C(=O)N1CCN(c2cncc(-c3c[nH]c4ncc(Cl)cc34)n2)[C@@H](C(=O)NCC(F)(F)F)C1` [Example 4-3, (2R)-1-[6-(5-chloro-1H-pyrrolo[2,3-b]-pyridin-3-yl)pyrazin-2-yl]-4-(2,2-dimethylpropanoyl)-N-(2,2,2-trifluoro-ethyl)piperazine-2-carboxamide] is lower in pIC50: 8.00 to 9.00 for the first, 7.00 to 8.00 for the second. The first is the more potent here.

Compared with `O=C(Cn1ccc2ncc(-c3c[nH]c4ncc(Cl)cc34)nc21)NCC(F)(F)F` [Example 5, 2-[3-(5-Chloro-1H-pyrrolo[2,3-b]pyridin-3-yl)-5H-pyrrolo[2,3-b]pyrazin-5-yl]-N-(2,2,2-trifluoroethyl)acetamide], `NC(=O)C1(Oc2cncc(-c3c[nH]c4ncc(Cl)cc34)n2)CC1` [Example 6-1, 1-{[6-(5-chloro-1H-pyrrolo[2,3-b]pyridin-3-yl)pyrazin-2-yl]oxy}cyclopropane-carboxamide] is higher in pIC50: 7.00 to 8.00 for the first, 8.00 to 9.00 for the second.

`CN(C)C(=O)C1(Oc2cncc(-c3c[nH]c4ncc(Cl)cc34)n2)CC1` [Example 6-2, 1-{[6-(5-chloro-1H-pyrrolo[2,3-b]pyridin-3-yl)pyrazin-2-yl]oxy}-N,N-dimethyl-cyclopropanecarboxamide] gave a pIC50 of 8.00 to 9.00.
